According to the METLIN SMRT retention time set (Domingo-Almenara et al. 2019):

Assay: gradient 5% acetonitrile 3 min, to 50% in 2 min, to 85% in 15 min, held 3 min, 100 µL/min
Settings: column: Zorbax Extend-C18 2.1 x 50 mm; eluents: water / acetonitrile, 0.1% formic acid
Outline: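 Standards, all pure, were combined into mixtures of ~100 molecules and run at 100 μL/min on a Zorbax Extend-C18 column (2.1 × 50 mm, 1.8 μm) with water and acetonitrile, each containing 0.1% formic acid. A coupled quadrupole time-of-flight mass spectrometer operated in positive and negative ionization mode. Retention time values come from computationally picked adduct peaks, each inspected manually.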

SMILES | RP-LC retention time [s]
Cc1csc(-c2cc(S(=O)(=O)NCC3CCCO3)cn2CC(=O)N2CCCCC2)n1 (configuration not stated) | 831
O=C(Cc1cccs1)N1CCCN(c2cc(-c3ccc4c(c3)OCO4)[nH]n2)CC1 | 671
O=C(Cn1cccc(-c2nc(-c3ccc(Cl)cc3)no2)c1=O)N1CCCc2ccccc21 | 1040
O=C(NCc1ccccc1)c1ccc(-c2cncnc2)nc1 | 675
CCOC(=O)c1c(S(=O)(=O)N2CCC(C(=O)Nc3cccc(F)c3)CC2)c(C)n(C)c1C | 862
Cc1cccc(N2CCN(S(=O)(=O)c3cc4c(s3)CCN(C(=O)C3CC3)C4)CC2)c1 | 1040
OC[C@@H]1CN(Cc2ccc(OC(F)(F)F)cc2)C[C@H]1c1ccncc1 | 521
CCC(=O)N1CCN(C(=O)c2ccccc2)CC1 | 693
Cc1cc2c(cc1S(=O)(=O)N1CCC(C(=O)N3CCCCC3)CC1)OCC(=O)N2 | 734
Cc1cc(C)cc(N2CCC(NC(=O)Cc3cccs3)C2=O)c1 (configuration not stated) | 862
CCN(CC)CCNC(=O)CN1N=C(c2ccc(Cl)cc2)CCC1=O | 625
CCn1cc(S(=O)(=O)N2CCCC2c2noc(CO)n2)cn1 (configuration not stated) | 619
CCc1nn(C)c(=O)c2cc(S(=O)(=O)NCc3ccccc3F)cn12 | 860
Cc1ccc(CNS(=O)(=O)c2ccc(-c3nnc(C4CC4)o3)o2)o1 | 816
Cc1csc(NC(=O)CSc2nn3c(=O)c(C)nnc3s2)n1 | 613
CN1C(=O)CCc2cc(NC(=O)Cc3cccs3)ccc21 | 702
CCCn1c(=O)sc2cc(S(=O)(=O)N3CCC(C(=O)Nc4cccc(C)n4)CC3)ccc21 | 844
O=C1N(c2ccccc2)CC12CCN(S(=O)(=O)Cc1ccccc1)CC2 | 654
Cc1ccc(-c2nc3cnccn3c2NCCC(=O)NC2CC2)cc1 | 616
Cc1noc([C@@H]2CC(F)(F)CN2C(=O)c2cnco2)n1 | 667
O=C(Nc1ccc(C(F)(F)F)cc1)Nc1cccc(-c2nccnc2N2CCOCC2)c1 | 956

Second part, the molecule after the results:

RP-LC retention time [s] | SMILES
774 | CCOC(=O)c1nc(NCc2ccccc2OC)c2ccccc2n1
784 | CCc1noc(NC(C)=O)c1-c1ccc(OC)c(S(=O)(=O)Nc2ccc(C)cc2)c1
781 | Clc1ccc2nc(-c3ccccc3)c(Nc3ccc4c(c3)OCO4)n2c1
844 | CN1c2cc(C(=O)NCc3cc(F)cc(F)c3)ccc2C(=O)N2CCCCC21 (configuration not stated)
970 | COc1ccc(Cn2c(=O)c3sccc3n(Cc3nc(-c4ccccc4OC)no3)c2=O)cc1
858 | CC1CCc2nc3ncn(CC(=O)Nc4ccc(Cl)cc4F)c(=O)c3cc2C1 (configuration not stated)
592 | COc1ccc(NC(=O)C2CCN(c3cncnc3N(C)C)CC2)cc1OC
666 | NC(=O)c1ccccc1NC(=O)CCCn1cnc(-c2ccc(F)cc2)cc1=O
990 | COc1cc(Nc2nc(-c3nnn(-c4ccc(F)cc4)c3C)ns2)cc(OC)c1
724 | Cc1noc2ncn(CC(=O)NCc3ccc(F)cc3)c(=O)c12
866 | CCn1nnc2c(SCC(=O)Nc3cccc(C(F)(F)F)c3)ncnc21
668 | CCc1ccc(NC(=O)Cn2c(C)nc3cc4c(cc32)OCCO4)cc1
739 | CCN(CC)C(=O)c1ccc(-c2nc3cc(NS(=O)(=O)c4cc(C)ccc4C)ccc3n2C)cc1
666 | O=C(CCc1c(-c2ccccc2)nc2ccccn12)Nc1ccc(F)cc1F
1050 | Cc1cc2nn(CC(=O)Nc3ccc(Cl)cc3)c(=O)n2c(Nc2ccccc2)n1
804 | CC1(C(=O)NCc2ccc(F)cc2)CCN(C(=O)Nc2ccc(F)cc2)CC1
